How the values were obtained:
[1] = test system: Gp91phox; experiment: gp91phox degradation in healthy PMN treated with purified elastase, western-blot; format: cell-based, human; conditions: 1 H at 37° C., 0.1 and 0.5 unit
Method: (§1) FIG. 8. Elastase induces the degradation of gp91phox and p22phox in healthy PMN. (A and B) Western-blot analysis and densitometric quantification of gp91phox and p22phox in healthy PMN treated in the absence or presence of elastase at 0.1 and 0.5 units for 1 hour. (C and D) Western-blot analysis densitometric quantification of gp91phox and […] in healthy PMN treated in the absence or presence of the elastase inhibitor (NEI) at 100 μM for 15 min before stimulation with fMLP (1 μM) for 45 min. (E) Western-blot analysis densitometric quantification of gp91phox in healthy PMN pretreated in the absence or presence of the elastase inhibitor (NEI) at 100 μM for 15 min before incubation for 45 min with a cell-free degranulation supernatant obtained from fMLP (1 μM, 2 min) stimulated PMN. Blots are representative of 4 experiments and densitometric analyses are cumulative and expressed as percentage of the actin level. […] (F) Sensorgrams of the PMN specific binding and dissociation to the anti-gp91phox antibody (7D5) coated to the CM3 sensorchip, analysed with the Biacore X100, as a function of time. […] Data are representative of 3 independent experiments are expressed as resonance unit (RU). (G) Flow cytometry quantification of the Gp91phox expression at the surface of PMN treated or not (Control) with 0.5 unit Elastase at 4° C. […]

[2] = test system: p22phox; experiment: p22phox degradation in healthy PMN treated with purified elastase, western-blot; format: cell-based, human; conditions: 1 H at 37° C., 0.5 unit
Method: as §1

[3] = test system: Gp91phox; experiment: Biacore SPR binding of intact PMN to anti-gp91phox 7D5 antibody; parameters: species or system human; conditions: PMN pretreated 1 H at 37° C. (0.5 units) and washed
Method: as §1

[4] = test system: Gp91phox; experiment: Flow cytometry of 7D5 antibody binding to gp91phox at the PMN surface after elastase at 4° C.; format: cell-based, human; conditions: PMN treated at 4° C. for 1 H, 0.5 unit
Method: as §1

[5] = test system: Gp91phox mRNA; experiment: Gp91phox mRNA quantification in neutrophils from cirrhotic patients; format: cell-based, human; conditions: patient neutrophils, 2.5 μg/ml, 30 min
Method: (§2) FIG. 3. The TLR7/8 agonist CL097 stimulated Gp91phox RNA production and synthesis in neutrophils from patients with advanced alcohol cirrhosis. Neutrophils from cirrhotic patients were treated in the absence (buffer) or presence of CL097 (2.5 μg/ml) for 30 min at 37° C. and the amount of Gp91phox mRNA was quantified and expressed as percentage of control (Buffer) (Panel A, n=6, *: P<0.05). The expression of Gp91phox was determined by western-blot assays and expressed as percentage±SEM of that of neutrophils of healthy donors (Panel B, n=4, *: P<0.05).
(§3) To determine whether this treatment improves NADPH oxidase activity, superoxyde production (02-°) was measured by the specific cytochrome C reduction assay, after cell stimulation with the bacterial peptide fMLP. […] Promisingly, these CL097 original properties were also observed in a model of ROS production in whole blood from patients (FIG. 5B).

[6] = test system: Gp91phox; experiment: Gp91phox expression by western-blot in neutrophils from cirrhotic patients; format: cell-based, human; conditions: patient neutrophils, 2.5 μg/ml, 30 min
Method: as §2, §3

[7] = test system: neutrophils from patients with advanced alcoholic cirrhosis; experiment: Superoxide production, cytochrome C reduction assay, patient neutrophils; format: cell-based, human; conditions: 2.5 μg/ml 15 min, then 1 μM fMLP
Method: (§4) FIG. 4. The TLR7/8 agonist CL097 restored the production of superoxide in neutrophils from patients with advanced alcohol cirrhosis. Neutrophils from healthy donors and patients with advanced alcoholic cirrhosis were treated for 15 min with the TLR7/8 agonist (2.5 μg/ml), then with PBS or 1 μM fMLP. Results represent the mean of superoxide production±SEM expressed in nmole/10^6 cells (n=8, *: P <0.05).
as §3

[8] = test system: neutrophils from healthy donors; experiment: Superoxide production, cytochrome C reduction assay, healthy neutrophils; format: cell-based, human; conditions: 2.5 μg/ml 15 min, then 1 μM fMLP
Method: as §4, §3

[9] = test system: purified neutrophils from patients with advanced alcohol cirrhosis; experiment: ROS production, luminol-enhanced chemiluminescence, purified patient neutrophils; format: cell-based, human
Method: (§5) FIG. 5. The TLR7/8 agonist CL097 restored the production of reactive oxygen species by purified neutrophils and in whole blood from patients. ROS production was measured by the highly sensitive luminol-enhanced chemiluminescence assay with purified neutrophils (0.5×10^6 cells/450μl Hanks Balanced salt solution, Panel A) and with whole blood (20 μl in 450 μl PBS containing 0.120 mM calcium, Panel B) from patients with advanced alcohol cirrhosis. Cells were treated for 15 min with the TLR7/8 agonist […], then with 1 μM fMLP (Panel A). Results represent the peak of chemiluminescence response expressed in cpm (mean±SEM of 8 experiments).
as §3

[10] = test system: whole blood from cirrhotic patients; experiment: ROS production, luminol chemiluminescence, whole blood from cirrhotic patients; format: cell-based, human
Method: as §5
(§6) FIG. 6. […] Whole blood (20 μl) from healthy donors (Panel A) and cirrhotic patients (Panel B) were treated in 450 μL PBS containing 0.120 mM calcium), in the absence (control) and presence of R848 or CL097 (0.25-5 μg/ml) for 15 min. Cells were then stimulated with 1 μM fMLP. Results represent the peak of chemiluminescence response induced by fMLP and are expressed in cpm (mean±SEM of 4-6, *: P<0.05).
as §3

[11] = test system: E coli; experiment: Bactericidal activity of neutrophils from cirrhotic patients against E coli; format: cell-based, human
Method: (§7) FIG. 7. Impaired bactericidal activity of neutrophils from cirrhotic patients and beneficial effects of the TLR7/8 agonist CL097. (A) Neutrophils from healthy volunteers (Control) and cirrhotic patients were incubated with E coli for 5 min, then treated or not (Buffer) with fMLP (1 μM) for 25 min. (B, C): Neutrophils incubated with bacteria were treated without (PBS) and with CL097 (1 μg/ml) for 2 min before stimulation with fMLP for 23 min. Cells were lysed and the number of bacterial colony was determined and expressed as percentage of that of control resting cells (A, n=6), or % of that of resting cells (PBS) in both cell populations (B, C, n=6); *P<0.05 (Data published in Boussif A et al, J Hepatol. 2016 64:1041-8. doi: 10.1016/j.jhep.2015.12.005. Epub 2015 Dec. 21).
(§8) Thus, TLR7/8 activation may provide beneficial effects on neutrophil host-defense activities in patients with cirrhosis.

[12] = test system: E coli; experiment: Bactericidal activity of neutrophils from healthy volunteers against E coli; format: cell-based, human
Method: as §7, §8

[13] = test system: whole blood from healthy donors; experiment: ROS production, luminol chemiluminescence, whole blood from healthy donors; format: cell-based, human; conditions: 0.25-5 μg/ml 15 min, then 1 μM fMLP
Method: as §6, §3

[14] = test system: cirrhotic BDL rats; experiment: In vivo treatment of cirrhotic bile duct ligated (BDL) rats, ROS production in whole blood; parameters: species or system Wistar female rats; conditions: 2.2 mg/kg at day 21, parenteral administration, fMLP 1 μM ex vivo
Method: FIG. 11. In vivo treatment of cirrhotic rats by R848 reverses the deficient ROS production in whole blood. The common bile duct with Wistar female rats was ligated (BDL) under general anesthesia (10 mg Avertin, IP) close to the liver hilum immediately below the bifurcation as described previously (Mohammadi et al, Liver Int. 2009, 29(5):692-700). All surgical procedures were performed under sterile conditions. Blood was collected in Eppendorf tubes (approximately 0.5 ml in 10 mM EDTA) with a 1 inch hypodermic needle inserted into the vessel in the mid ventral surface of the tail. White blood cells were counted using a MS9-5V Analyser Counter (Melet Schloesing Laboratories). At day 21, the cirrhotic BDL rats were treated with R848 (2.2 mg/kg) as reported (McCluskie M J et al, Antiviral Res. 69:77-85, 2006). Control rats were not treated. The production of reactive oxygen species were measured in whole blood at the indicated day. Briefly, ROS production was continueously recorded in a thermostated bioluminometer (Berthold LB940) using 3 blood volumes (0.9, 1.8 and 3.75 μl) incubated at 37° C. in 0.5 ml Hanks balanced salt solution (HBSS) containing 10 μM luminol. Cells were treated with cytochalasin b (0.25 μg/ml) for 5-10 min then stimulated with the bacterial-derived peptide fMet-Leu-he (fMLP, 1 μM). ROS production represents the peak of chemiluminescence response in whole blood. […]

For “elastase: purified elastase, a serine protease produced by neutrophils”, the gp91phox degradation [1] was “approximately 50%”, the p22phox degradation [2] was “degradation of p22phox was observed” and the “PMN binding to 7D5 antibody (SPR)” value [3] was “markedly reduced”. For the same molecule, the “7D5 antibody binding (FACS scan)” value [4] was “strongly inhibited”.

`CCOCc1nc2c([nH]1)c(N)nc1ccccc12` [CL097] was tested, and the “Gp91phox mRNA level” value [5] was “increased”, the “expression of Gp91phox (western-blot)” value [6] was “restored” and the fMLP-induced superoxide production [7] was “potentiated fMLP-induced superoxide production to a level similar of that of neutrophils from healthy donors”. For the same molecule, the “optimal production of superoxide” value [8] was “further increased”, the “fMLP-induced ROS production” value ([9]; agonist 15 min, then 1 μM fMLP) was “strongly potentiate” and the “ROS production by agonist by itself” value ([9]; agonist alone, 15 min) was “weak production of ROS”. The “ROS production in whole blood (stimulation and potentiation properties)” value ([10]; whole blood from patients) was “also observed”, the “bacterial killing by agonist alone” value ([11]; neutrophils from cirrhotic patients, 1 μg/ml) was “significant bacterial killing” and the fMLP-induced bacterial killing ([11]; patients' neutrophils, 1 μg/ml 2 min before fMLP 23 min) was “strongly potentiated”. The fMLP-induced bacterial killing ([12]; control neutrophils, 1 μg/ml 2 min before fMLP 23 min) was “non significant increase” and the “bacterial killing by agonist alone” value ([12]; neutrophils from controls, 1 μg/ml) was “significant bacterial killing”.

`CCOCc1nc2c(N)nc3ccccc3c2n1CC(C)(C)O` [R848, 4-amino-2-ethoxymethyl-α,α-dimethyl-1H-imidazol[4,5-c]quinoline-1-ethanol] was tested, and the “improvement of ROS production, potency compared with CL097” value ([10]; whole blood from cirrhotic patients, 0.25-5 μg/ml 15 min, then 1 μM fMLP) was “more potent than CL097”, the “improvement of ROS production, potency compared with CL097” value [13] was “more potent than CL097” and the “ROS production in whole blood of cirrhotic rats” value [14] was “reversed the deficient ROS production”.

From patent US10201536B2, “Methods and pharmaceutical compositions for the treatment of bacterial infections in patients suffering from cirrhosis” (INSERM (INSTITUT NATIONAL DE LA SANTE ET DE LA RECHERCHE …, priority 2015, dated 2019)
